Test results from patent US20020132223A1, “Methods for modulating activity of the FXR nuclear receptor” (City of Hope, priority 1999, published 2002).
“Also recorded” adds a separate entry of the source. Each block holds one molecule with its values, some of them ahead of it.

Columns and labels:
FXR-RXR heterodimers [1] = target: T1, FXR-RXR heterodimers (Rattus norvegicus, UniProt Q62735); experiment: Transient transfection activation assay in CV-1 cells, EcRE×6 reporter, FXR + RXR; type: cell-based
T1 sequence (Q62735 1-469): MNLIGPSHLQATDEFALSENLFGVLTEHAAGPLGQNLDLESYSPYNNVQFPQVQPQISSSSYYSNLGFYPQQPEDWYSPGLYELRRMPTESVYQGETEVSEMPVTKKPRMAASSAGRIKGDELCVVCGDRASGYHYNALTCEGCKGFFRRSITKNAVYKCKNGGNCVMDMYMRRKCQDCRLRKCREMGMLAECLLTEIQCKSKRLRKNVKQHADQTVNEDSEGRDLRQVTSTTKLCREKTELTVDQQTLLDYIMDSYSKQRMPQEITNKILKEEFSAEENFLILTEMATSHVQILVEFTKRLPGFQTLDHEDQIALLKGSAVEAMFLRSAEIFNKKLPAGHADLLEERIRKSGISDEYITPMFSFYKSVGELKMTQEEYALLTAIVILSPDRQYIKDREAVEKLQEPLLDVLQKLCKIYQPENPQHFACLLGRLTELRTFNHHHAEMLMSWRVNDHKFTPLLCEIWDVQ
T1 sequence (P19793 1-462 partner): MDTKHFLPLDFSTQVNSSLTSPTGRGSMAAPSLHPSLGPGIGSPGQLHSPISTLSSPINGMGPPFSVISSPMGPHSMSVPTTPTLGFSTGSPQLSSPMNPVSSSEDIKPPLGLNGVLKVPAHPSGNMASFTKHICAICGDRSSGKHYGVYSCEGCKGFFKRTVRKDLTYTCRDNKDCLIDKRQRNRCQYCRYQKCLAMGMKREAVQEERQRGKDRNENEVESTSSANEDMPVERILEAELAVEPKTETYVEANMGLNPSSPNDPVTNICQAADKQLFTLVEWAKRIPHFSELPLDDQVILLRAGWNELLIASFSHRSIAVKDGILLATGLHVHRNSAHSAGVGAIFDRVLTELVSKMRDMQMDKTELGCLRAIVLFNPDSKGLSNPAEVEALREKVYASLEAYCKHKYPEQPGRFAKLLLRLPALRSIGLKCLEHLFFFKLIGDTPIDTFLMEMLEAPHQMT
Excerpt: Suitable reporter gene constructs are well known to skilled workers in the fields of biochemistry and molecular biology. Reporter/receptor pairs used in the assay reported in FIG. 1 are listed in Table I. All transfections additionally contained CMV-βgal as an internal control. Suitable constructs for use in the these studies may conveniently be cloned into pCMV. pCMV contains the cytomegalovirus promoter/enhancer followed by a bacteriophage T7 promoter for transcription in vitro. Other vectors known in the art can be used in the methods of the present invention.
(§1) CV-1 cells for the activation assays were grown in Dulbecco's modified Eagle's medium supplemented with 10% resin charcoal-stripped fetal bovine serum, 50 U/ml penicillin G and 50 μg/ml streptomycin sulfate (DMEM-FBS) at 37° C. in 5% CO2. One day prior to transfection, cells were plated to 50-80% confluence using phenol red free DMEM-FBS.
The cells were transiently transfected by lipofection. Reporter constructs (300 ng/10^5 cells) and cytomegalovirus-driven expression vectors (20-50 ng/10^5 cells) were added, with CMV-β-gal (500 ng/10^5 cells) as an internal control. After 2 hours, the liposomes were removed and the cells were treated for approximately 45 hours with phenol red free DMEM-FBS containing the test bile acid and other compounds.
Any compound which is a candidate for activation of FXR may be tested by this method. […] After exposure to ligand, the cells were harvested and assayed for β-galactosidase activity (control) and activity of the specific reporter gene.
Activity of the reporter gene can be conveniently normalized to the internal control and the data plotted as fold activation relative to untreated cells.
(§2) A variety of commercially available bile acids (Sigma) were tested for their ability to activate known FXR-RXR (FIG. 9; left panel) and FXR-RXRm (FIG. 9, right panel).
as §1, with “cells” for “cells for the activation assays”, “Modified” for “modified”, “resin-charcoal stripped” for “resin charcoal-stripped”, “phenol-red” for “phenol red”

[2] = test system: RXRα; PPARα, γ and δ; VDR; T3Rβ; RAR; PXR; LXRα and CARβ; experiment: Activation of other receptors by CDCA (data not shown)
RXR (GAL-L-RXR) = target: T2, RXR (GAL-L-RXR) (Homo sapiens, UniProt P19793); experiment: GAL4 chimera activation assay in CV-1 cells, UASG×4 reporter, GAL-L-RXR
T2 sequence (P19793 203-462): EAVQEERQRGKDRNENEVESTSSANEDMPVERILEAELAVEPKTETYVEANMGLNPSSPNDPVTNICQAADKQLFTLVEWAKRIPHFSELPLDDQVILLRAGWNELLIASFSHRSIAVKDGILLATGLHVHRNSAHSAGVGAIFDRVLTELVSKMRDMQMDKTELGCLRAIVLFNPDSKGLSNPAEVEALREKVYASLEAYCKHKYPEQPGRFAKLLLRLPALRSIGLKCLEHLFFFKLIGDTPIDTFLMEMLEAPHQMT

[3] = test system: FXR derived from human, rat and mouse; experiment: Antagonism of CDCA activation of FXR in CV-1 cells; type: cell-based; details: 50 μM CDCA, 20 μM azole compound
Description: The FXR receptor activation assays disclosed herein may be used not only to test compounds for activation of FXR as above, but also for compounds which antagonize FXR activation. […] See Example 7.
CV-1 cells were grown in DMEM supplemented with 10% resin-charcoal stripped fetal bovine serum, 50 U/ml penicillin G and 50 μg/ml streptomycin sulfate at 37° C. in 5% CO2. Cells were plated to 50-80% confluence one day prior to transfection using phenol red-free DMEM-FBS. The cells were transfected by lipofection using N-[1-(2,3-dioleoyloxy)propyl]-N,N,N-ammonium methyl sulfate according to manufacture's instructions (Boehringer Mannheim). The cells were transfected with a CMV expression vector containing the FXR indicated in FIG. 16 (none, −; human, hFXR; rat, rFXR; or mouse, mFXR) and RXR. The luciferase reporter construct contained the herpesvirus thymidine kinase promoter (−105/+51) linked to six copies of the response element hsp27 EcRE. […] After exposure to the agonist and candidate antagonist compounds, cells were harvested and assayed for luciferase and β-galactosidase activity. […] Therefore, clotrimazole, Compound A and Compound B were selected from the screen as FXR receptor antagonists.

FXR = target: T3, FXR (Rattus norvegicus, UniProt Q62735); experiment: Transient transfection assay, FXR + RXR with liver bile acid transporter; type: cell-based; details: for EC50: with the liver bile acid transporter
T3 sequence (Q62735 1-469): T1 sequence (Q62735 1-469)
T3 sequence (P19793 1-462 partner): T1 sequence (P19793 1-462 partner)
Excerpt: The liver and ileum express tissue-specific bile acid transport proteins for efficient uptake of these compounds. […] CV-1 cells therefore were co-transfected with a human liver bile acid transporter (accession L21893). Use of this transporter allows hydrophilic bile acid or bile acid-derived compounds or compounds, which due to their structural similarity to bile acid are transported by the transporter, to be tested for activation of the intracellular bile acid nuclear receptor. […] Any suitable non-specific transporter may also be used.
After transfection, cells were treated with 100 μM concentrations of the indicated bile acid.
In addition to the structure-activity studies, dose-response analyses were performed for some bile acid nuclear receptor ligands. For these analyses, shown in FIG. 11, CV-1 cells were transfected as above, with the liver bile acid transporter, and treated with the indicated varying concentrations of each bile acid.

FXR-RXR heterodimers [4] = target: T4, FXR-RXR heterodimers (Rattus norvegicus, UniProt Q62735); experiment: In vitro coactivator recruitment assay (mobility shift), FXR + RXR, GST-GRIP1; type: biochemical
T4 sequence (Q62735 1-469): T1 sequence (Q62735 1-469)
T4 sequence (P19793 1-462 partner): T1 sequence (P19793 1-462 partner)
T4 sequence (Q61026 625-765 partner limits assumed): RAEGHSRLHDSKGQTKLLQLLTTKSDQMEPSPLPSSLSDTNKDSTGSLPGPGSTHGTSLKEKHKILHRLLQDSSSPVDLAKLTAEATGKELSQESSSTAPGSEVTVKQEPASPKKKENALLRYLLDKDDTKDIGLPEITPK
Description: In vitro coactivator recruitment assays were performed by adding the ligand to a mixture of the following components: FXR, 9-cis retinoic acid receptor, a coactivator, and a labeled FXR response element (probe). […] GRIP1 was expressed in bacteria and purified for these assays. The GST-GRIP1 construct, containing the three receptor interaction domains of mouse GRIP1 (Arg 625-Lys 765, accession U39060) fused to glutathione-S-transferase, was created for bacterial expression of the GRIP1 coactivator.
After addition of the putative ligand to the mixture of components describe above and mixing, the mixture is incubated under conditions.
GST-GRIP1 was expressed in E. coli and purified on glutathione-sepharose columns. […] Complexes were electrophoresed through a 5% polyacrylamide gel in 0.5×TBE (45 mM Tris base, 45 mM boric acid, 1 mM EDTA) at room temperature. Electrophoretic mobility indicated recruitment of coactivator.

FXR-RXRm = target: T5, FXR-RXRm (Rattus norvegicus, UniProt Q62735); experiment: Transient transfection activation assay in CV-1 cells, FXR + RXRm; type: cell-based; details: 100 nM
T5 sequence (Q62735 1-469): T1 sequence (Q62735 1-469)
Description: as §2
as §1, with “cells” for “cells for the activation assays”, “Modified” for “modified”, “resin-charcoal stripped” for “resin charcoal-stripped”, “phenol-red” for “phenol red”

FXR + RXRm = target: T6, FXR + RXRm (Rattus norvegicus, UniProt Q62735); experiment: In vitro coactivator recruitment assay (mobility shift), FXR + RXRm, GST-GRIP1; type: biochemical
T6 sequence (Q62735 1-469): T1 sequence (Q62735 1-469)
T6 sequence (Q61026 625-765 partner): T4 sequence (Q61026 625-765 partner limits assumed)
Description: In vitro coactivator recruitment assays were performed by adding the ligand to a mixture of the following components: FXR, 9-cis retinoic acid receptor, a coactivator, and a labeled FXR response element (probe). A polyamino acid containing the receptor interaction domains of co-activator GRIP1 may be used as the coactivator, however any functional coactivator or coactivator complex is contemplated for use in this assay. GRIP1 was expressed in bacteria and purified for these assays. The GST-GRIP1 construct, containing the three receptor interaction domains of mouse GRIP1 (Arg 625-Lys 765, accession U39060) fused to glutathione-S-transferase, was created for bacterial expression of the GRIP1 coactivator. […] Response elements suitable for use in this assay may be any nucleic acid probe which is substantially homologous to the target DNA sequence of the bile acid nuclear receptor.
After addition of the putative ligand to the mixture of components describe above and mixing, the mixture is incubated under conditions. […] Techniques such as, for example, thin layer chromatography, high pressure liquid chromatography, size exclusion chromatography, sedimentation, immunoseparation techniques, or any other convenient method known in the art may be used.
To distinguish between binding through the FXR and RXR subunits, the coactivator recruitment assays were repeated substituting RXRm for RXR. […]

[5] = bile acids 100 μM, no bile acid transporter

activity as FXR activator (FXR-RXR heterodimers [1]; [5]): inactive
SMILES: C[C@H](CCC(=O)O)[C@H]1CC[C@H]2[C@@H]3[C@H](O)[C@@H](O)[C@@H]4C[C@H](O)CC[C@]4(C)[C@H]3CC[C@]12C [α-muricholic acid]

SMILES: COC(=O)/C=C(\C)CC/C=C(\C)CC[C@H]1OC1(C)C [JH III, juvenile hormone III]
activity as FXR activator (FXR-RXR heterodimers [1]; 50 μM): far weaker activity relative to the most efficacious bile acids

SMILES: C[C@H](CCC(=O)O)[C@H]1CC[C@H]2[C@@H]3[C@H](O)C[C@@H]4C[C@H](O)CC[C@]4(C)[C@H]3CC[C@]12C [CDCA, chenodeoxycholic acid]
activation of other receptors [2]: failed to activate
activation of GAL-L-RXR chimera (RXR (GAL-L-RXR)): did not activate

SMILES: FC(F)(F)c1cccc(C(c2ccccc2)(c2ccccc2)n2ccnc2)c1 [Compound A]
antagonism of CDCA activation of FXR [3]: displayed antagonist properties; also recorded: significant but weak activity

activation of FXR (FXR; 100 μM, coexpression of the liver bile acid transporter): 170 fold
activity as FXR activator (FXR-RXR heterodimers [1]; [5]): inactive
coactivator recruitment by FXR-RXR (FXR-RXR heterodimers [4]): less effective
SMILES: C[C@H](CCC(=O)O)[C@H]1CC[C@H]2[C@@H]3[C@H](O)C[C@@H]4C[C@H](O)CC[C@]4(C)[C@H]3C[C@H](O)[C@]12C [CA, cholic acid]

EC50 (FXR): ~50 µM
SMILES: C[C@H](CCC(=O)O)[C@H]1CC[C@H]2[C@@H]3CC[C@@H]4C[C@H](O)CC[C@]4(C)[C@H]3C[C@H](O)[C@]12C [DCA, deoxycholic acid]

SMILES: Cc1cc2c(cc1C1(c3ccc(C(=O)O)cn3)CC1)C(C)(C)CCC2(C)C [LG268]
response of FXR-RXRm (FXR-RXRm): little or no response

SMILES: c1ccc(-c2cn(C(c3ccccc3)(c3ccccc3)c3ccccc3)cn2)cc1 [Compound B]
antagonism of CDCA activation of FXR [3]: displayed antagonist properties; also recorded: demonstrate inhibition of FXR activation

SMILES: C[C@H](CCC(=O)O)[C@H]1CC[C@H]2[C@@H]3C(=O)C[C@@H]4C[C@H](O)CC[C@]4(C)[C@H]3CC[C@]12C [7-ketolithocholic acid, 5β-cholanic acid-3α-ol-7-one]
activity as FXR activator (FXR-RXR heterodimers [1]; [5]): activity intermediate between CDCA and UDCA

activity as FXR activator (FXR-RXR heterodimers [1]; [5]): inactive
SMILES: C[C@H](CCC(=O)O)[C@H]1CC[C@H]2[C@@H]3[C@H](O)[C@H](O)[C@@H]4C[C@H](O)CC[C@]4(C)[C@H]3CC[C@]12C [hyocholic]

SMILES: CC(=O)N1CCN(c2ccc(OCC3COC(Cn4ccnc4)(c4ccc(Cl)cc4Cl)O3)cc2)CC1 (stereo not shown) [ketonazole]
antagonism of CDCA activation of FXR [3]: inactive

EC50 (FXR): ~50 µM
SMILES: C[C@H](CCC(=O)O)[C@H]1CC[C@H]2[C@@H]3CC[C@@H]4C[C@H](O)CC[C@]4(C)[C@H]3CC[C@]12C [LCA, lithocholic acid]

activity as FXR activator (FXR-RXR heterodimers [1]; [5]): inactive
SMILES: C[C@H](CCC(=O)O)[C@H]1CC[C@H]2[C@@H]3C[C@@H](O)[C@@H]4C[C@H](O)CC[C@]4(C)[C@H]3CC[C@]12C [murocholic acid]

coactivator recruitment by FXR-RXRm (FXR + RXRm): recruited coactivator
SMILES: C[C@H](CCC(=O)NCC(=O)O)[C@H]1CC[C@H]2[C@@H]3CC[C@@H]4C[C@H](O)CC[C@]4(C)[C@H]3CC[C@]12C [glyco-LCA]

SMILES: Clc1ccccc1C(c1ccccc1)(c1ccccc1)n1ccnc1 [clotrimazole]
antagonism of CDCA activation of FXR [3]: strongest effect; also recorded: strongly active

SMILES: C[C@H](CCC(=O)O)[C@H]1CC[C@H]2[C@@H]3[C@H](O)C[C@@H]4C[C@H](O)CC[C@]4(C)[C@H]3CC[C@]12C (single isomer, unassigned) [peak Z, chenodeoxycholic acid]
effect on RXR (RXR (GAL-L-RXR); HPLC fractions, 25 μg/ml): no effect
